Legend:
Oocyte = assay: Inhibition of human AQP4b-mediated water transport in Xenopus oocytes at 20 uM; type: cell-based
[1] = Inhibition of human AQP4b-mediated water transport in Xenopus oocytes; details: Oocyte

| IC50 [1] | SMILES | inhibition (Oocyte) |
| --- | --- | --- |
|  | CCOc1ccc2nc(S(N)(=O)=O)sc2c1 | 68% |
|  | CC(=O)Nc1ccc(S(N)(=O)=O)cc1 | 23% |
| 0.9 µM | CC(=O)Nc1nnc(S(N)(=O)=O)s1 [ACETAZOLAMIDE] |  |
